Data on one compound can be found in ChEMBL document CHEMBL2074516, “cDNA structure, genomic organization, and promoter analysis of the mouse intestinal peptide transporter PEPT1” (Biochim Biophys Acta, 2000).

The target of assay [1] is T1, Solute carrier family 15 member 1 (Mus musculus) (UniProt Q9JIP7).
T1 sequence (whole entry): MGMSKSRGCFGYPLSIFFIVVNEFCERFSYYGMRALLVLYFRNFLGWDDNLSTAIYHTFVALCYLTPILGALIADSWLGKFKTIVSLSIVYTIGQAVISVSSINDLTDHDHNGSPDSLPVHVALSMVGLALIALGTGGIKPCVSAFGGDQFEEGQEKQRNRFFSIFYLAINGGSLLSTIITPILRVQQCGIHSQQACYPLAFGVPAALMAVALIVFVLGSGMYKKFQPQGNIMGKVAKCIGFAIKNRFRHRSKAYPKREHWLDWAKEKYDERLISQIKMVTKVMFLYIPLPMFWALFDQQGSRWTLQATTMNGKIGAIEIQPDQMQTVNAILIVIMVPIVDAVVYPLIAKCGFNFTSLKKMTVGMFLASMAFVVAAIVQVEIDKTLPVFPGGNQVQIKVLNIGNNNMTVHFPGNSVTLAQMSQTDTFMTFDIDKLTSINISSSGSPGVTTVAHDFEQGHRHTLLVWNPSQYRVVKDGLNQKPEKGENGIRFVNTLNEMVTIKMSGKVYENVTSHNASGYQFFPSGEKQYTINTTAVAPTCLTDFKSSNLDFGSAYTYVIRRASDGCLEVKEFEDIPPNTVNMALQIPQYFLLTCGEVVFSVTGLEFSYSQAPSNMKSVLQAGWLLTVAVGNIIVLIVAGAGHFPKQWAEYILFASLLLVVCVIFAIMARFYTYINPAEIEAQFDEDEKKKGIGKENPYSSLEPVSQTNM
Briefly: TP_TRANSPORTER: uptake in Xenopus laevis oocytes. The class given is functional, cell-based. Conditions: Oocyte.

Assay [2] has as its target T1, Solute carrier family 15 member 1 (Mus musculus). As to the kind of experiment: TP_TRANSPORTER: uptake in PEPT1-expressing HRPE cells. It is filed as functional, cell-based.

Structures are written as SMILES. Where a SMILES comes first, the peptide text is derived from it. [ ]: non-standard residue; d: D form. Sar = CNCC(=O)O

With `CN(CC(=O)O)C(=O)CN` (H-Gly-[Sar]-OH), the Activity result in assay [1] and in assay [2] was “substrate [+]” in each case.
